Several values for one entry are separate records, joined by “and”; a condition that tells them apart may be missing. Identical values can stand only once.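 Each compound was tested at five concentrations against cells in 96-well plates for 48 hours. Abbreviation: GI50, concentration required for 50% inhibition of growth. TGI denotes the concentration required for complete inhibition of growth.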
System: SF-268 CNS
Assay: growth of human tumour cells (NCI), 48 h

| SMILES | TGI | GI50 |
| --- | --- | --- |
| COc1ccc(/C=C2\CCC(C)C3=C2NC(=S)NC3c2ccc(OC)c(OC)c2)cc1OC (centres undefined) | > 31.6 µM |  |
| COc1ccc2c(=O)c(O)c(-c3ccc(OC)c(OC)c3)oc2c1 | > 100 µM |  |
| COc1ccc(C(OCC2OC(n3cc(C)c(=O)[nH]c3=O)CC2n2cc(Cn3cc(I)c(=O)[nH]c3=O)nn2)(c2ccccc2)c2ccccc2)cc1 (centres undefined) | > 100 µM |  |
| C=C(C1=CC(=O)C(C)(C)O1)[C@@H]1CC=C([C@@H]2CC[C@H]3[C@@]2(C)CC[C@H]2C(C)(C)C(=O)[C@H](O)C[C@]32C)[C@H](O)O1 | 3.76 µM |  |
| CC1=CC2C(O1)C1C(=O)C=CC(=O)C1=CC2[N+](=O)[O-] (centres undefined) | 29.3 µM |  |
| C=C(Br)C(C)(Cl)CCC(Br)C(C)(C)Cl (centres undefined) | > 100 µM |  |
| Cc1c2cnccc2c(C)c2c1c1ccccc1n2CCCN | 0.879 µM and 0.583 µM | 200 nM and 141 nM |
| O=C(CCC(=O)c1ccc(Cl)cc1)NO | > 100 µM |  |
| COc1c(C)c(C/C=C(\C)CCCCO[Si](c2ccccc2)(c2ccccc2)C(C)(C)C)c(OC)c(OC)c1OC | > 100 µM |  |
| CN1CCN([C@H]2C[C@H]3[C@@H]4CC=C5C[C@@H](O)CC[C@]5(C)[C@H]4CC[C@]3(C)C2=O)CC1 | > 100 µM |  |
| COc1ccc(C2c3cc4c(cc3OC(NNS(=O)(=O)c3ccc(C)cc3)C2C)OCO4)cc1 (centres undefined) | > 100 µM |  |
| CNC(=O)OCC1=C(COC(=O)NC)C(C)N(c2ccc(OC)cc2)C1 (centres undefined) | > 100 µM |  |
| CCC12C=CCN3CCC4(C(=C(C(=O)OC)[C@@H]1O)Nc1ccccc14)C32 (some centres undefined) | 6.76 µM |  |
| O=C(O)CN(CC(=O)O)C1CCCCC1N(CC(=O)O)CC(=O)NCCN=C=S (centres undefined) | > 100 µM |  |
| Cc1nc(C(N)=S)sc1/C(CC(=O)C(=O)Nc1cccc2ccc(O)cc12)=N\NC(=O)c1ccncc1 | > 100 µM |  |
| Cc1cc(O)c2c(=O)c3ccccc3[nH]c2c1 | > 100 µM |  |
| N=c1n(C(=O)N2CCCC2)c2cc(Cl)ccc2n1C1=NCCN1 | > 100 µM |  |
| COc1nc(N)c(C(=O)CCl)c(=O)n1C | 55.2 µM |  |
| [N-]=[N+]=Nc1cc(=O)oc2ccccc12 | > 100 µM |  |
| Nc1cccc2cc(Cl)cnc12 | > 100 µM |  |
| C=C1c2nc3ccccc3n2C=C(c2ccccc2)N1c1ccc([N+](=O)[O-])cc1 | 49.1 µM |  |
| Cc1ccccc1-n1c(=O)c2ncn(CCCl)c2n(-c2ccccc2C)c1=S | > 100 µM |  |

System: SK-MEL-5 melanoma
Assay: growth of human tumour cells (NCI), 48 h

| SMILES | TGI | GI50 [nM] |
| --- | --- | --- |
| CC(=O)Nc1ccc(-c2nnc(SCC(=O)Nc3ccc([N+](=O)[O-])cc3)o2)cc1 | 25.9 µM |  |
| N.N.N.N.O=[N+]([O-])[O-].[Co+3].[N-]=[N+]=[N-].[N-]=[N+]=[N-] | > 100 µM |  |
| COC(=O)C1CCC(=O)N1C(c1ccccc1)c1ccc(OC)c(OC)c1 (centres undefined) | > 100 µM |  |
| Oc1cccc2c(Cl)ccnc12 | 14.8 µM |  |
| Cc1cccc(/C=N/NC(=S)Nc2ccccc2)n1 | > 22.5 µM |  |
| N#CC1=C(N)N(c2ccccc2)C(c2ccco2)C1(C#N)C#N (centres undefined) | 32.3 µM |  |
| Cc1cc(=O)[nH]c(NN2C(Cl)C(=O)C2c2ccccc2O)n1 (centres undefined) | 17.2 µM |  |
| CC(C)c1ccc(/C=C2/C=C(c3ccc4ccccc4c3)OC2=O)cc1 | 29 µM |  |
| COc1ccc(/C=C2\CCC(C)C3=C2NC(=S)NC3c2ccc(OC)c(OC)c2)cc1OC (centres undefined) | 28.8 µM |  |
| COc1ccc2c(=O)c(O)c(-c3ccc(OC)c(OC)c3)oc2c1 | > 100 µM |  |
| COc1ccc(C(OCC2OC(n3cc(C)c(=O)[nH]c3=O)CC2n2cc(Cn3cc(I)c(=O)[nH]c3=O)nn2)(c2ccccc2)c2ccccc2)cc1 (centres undefined) | > 100 µM |  |
| C=C(C1=CC(=O)C(C)(C)O1)[C@@H]1CC=C([C@@H]2CC[C@H]3[C@@]2(C)CC[C@H]2C(C)(C)C(=O)[C@H](O)C[C@]32C)[C@H](O)O1 | 24.1 µM |  |
| CC1=CC2C(O1)C1C(=O)C=CC(=O)C1=CC2[N+](=O)[O-] (centres undefined) | 38.2 µM |  |
| C=C(Br)C(C)(Cl)CCC(Br)C(C)(C)Cl (centres undefined) | > 100 µM |  |
| Cc1c2cnccc2c(C)c2c1c1ccccc1n2CCCN | 1.44 µM and 2.17 µM | 1010 |
